# Residues, ends and D or L forms follow the SMILES beside them.
# Biological target: IL-17RA/IL17RC dimerization induced by IL-17A (Homo sapiens, UniProt Q16552)
# Assay: IL-17RA/IL17RC dimerization assay in response to IL-17A (PathHunter Cytokine Receptor Assay)
# Type: cell-based
# Details: IL-17A at EC80; read-out: IC50 in IL-17RA/IL7RC dimerization assay
# Method in brief: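 Receptor dimerization was read as chemiluminescence from complemented β-galactosidase after IL-17A at EC80 concentration for 6–16 h at 37 °C. Peptides were added 60 min before agonist, at 37 °C or room temperature, with 1% vehicle. Percent inhibition used the EC80-stimulated and vehicle wells as references.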
# IL-17RA/IL17RC dimerization induced by IL-17A, sequence (Q16552 24-155): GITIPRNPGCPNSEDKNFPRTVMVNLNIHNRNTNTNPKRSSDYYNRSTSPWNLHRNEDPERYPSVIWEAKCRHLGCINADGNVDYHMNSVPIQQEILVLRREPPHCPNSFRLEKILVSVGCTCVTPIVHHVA
row,IC50,SMILES
1,< 10 µM,CC(=O)N[C@H](C(=O)N[C@@H](Cc1c[nH]cn1)C(=O)N[C@H](C(=O)N[C@H](C(=O)N[C@H](C(=O)N1CCC[C@H]1C(=O)N[C@@H](CCC(N)=O)C(=O)N[C@@H](CCC(=O)O)C(=O)N[C@@H](CC(C)C)C(=O)N[C@@H](Cc1ccc(O)cc1)C(=O)N[C@@H](CCC(=O)O)C(=O)N[C@@H](Cc1c[nH]c2ccccc12)C(=O)N[C@H](C(=O)N[C@@H](CCCNC(=N)N)C(=O)N[C@@H](CCCNC(=N)N)C(N)=O)C(C)C)C(C)C)[C@@H](C)O)C(C)C)C(C)C [SEQ ID NO: 226] (Ac-VHVTVPQELYEWVRR-NH2)
2,< 10 µM,CC(=O)N[C@H](C(=O)N[C@@H](Cc1c[nH]cn1)C(=O)N[C@H](C(=O)N[C@H](C(=O)N[C@H](C(=O)N1CCC[C@H]1C(=O)N[C@@H](CCC(N)=O)C(=O)N[C@@H](CCC(=O)O)C(=O)N[C@@H](CC(C)C)C(=O)N[C@@H](Cc1c[nH]c2ccccc12)C(=O)N[C@@H](CCC(=O)O)C(=O)N[C@@H](Cc1c[nH]c2ccccc12)C(=O)N[C@H](C(=O)N[C@@H](CCC(=O)O)C(=O)N[C@@H](CCC(=O)O)C(N)=O)C(C)C)C(C)C)[C@@H](C)O)C(C)C)C(C)C [SEQ ID NO: 227] (Ac-VHVTVPQELWEWVEE-NH2)
3,< 10 µM,CC(=O)N[C@H](C(=O)N[C@@H](Cc1c[nH]cn1)C(=O)N[C@H](C(=O)N[C@H](C(=O)N[C@H](C(=O)N1CCC[C@H]1C(=O)N[C@@H](CCC(N)=O)C(=O)N[C@@H](CCC(=O)O)C(=O)N[C@@H](CC(C)C)C(=O)N[C@@H](Cc1ccccc1)C(=O)N[C@@H](CCC(=O)O)C(=O)N[C@@H](Cc1c[nH]c2ccccc12)C(=O)N[C@H](C(=O)N[C@@H](CCC(=O)O)C(=O)N[C@@H](CCC(=O)O)C(N)=O)C(C)C)C(C)C)[C@@H](C)O)C(C)C)C(C)C [SEQ ID NO: 228] (Ac-VHVTVPQELFEWVEE-NH2)
4,< 10 µM,CC(=O)N[C@H](C(=O)N[C@@H](Cc1c[nH]cn1)C(=O)N[C@H](C(=O)N[C@H](C(=O)N[C@H](C(=O)N1CCC[C@H]1C(=O)N[C@@H](CCC(N)=O)C(=O)N[C@@H](CCC(=O)O)C(=O)N[C@@H](CC(C)C)C(=O)N[C@@H](Cc1ccc(O)cc1)C(=O)N[C@@H](CCC(=O)O)C(=O)N[C@@H](Cc1c[nH]c2ccccc12)C(=O)N[C@H](C(=O)N[C@@H](CCC(=O)O)C(=O)N[C@@H](CCC(=O)O)C(N)=O)C(C)C)C(C)C)[C@@H](C)O)C(C)C)C(C)C [SEQ ID NO: 229] (Ac-VHVTVPQELYEWVEE-NH2)
5,< 10 µM,CC[C@H](C)[C@H](NC(=O)[C@H](CO)NC(=O)[C@@H](NC(=O)[C@H](Cc1c[nH]cn1)NC(=O)[C@@H](NC(C)=O)C(C)C)C(C)C)C(=O)N1CCC[C@H]1C(=O)N[C@@H](CCC(N)=O)C(=O)N[C@@H](CCC(=O)O)C(=O)N[C@@H](CC(C)C)C(=O)N[C@@H](Cc1c[nH]c2ccccc12)C(=O)N[C@@H](CCC(=O)O)C(=O)N[C@@H](Cc1c[nH]c2ccccc12)C(=O)N[C@H](C(=O)N[C@@H](CCCNC(=N)N)C(=O)N[C@@H](CCCNC(=N)N)C(N)=O)C(C)C [SEQ ID NO: 230] (Ac-VHVSIPQELWEWVRR-NH2)
6,< 10 µM,CC(=O)N[C@H](C(=O)N[C@@H](Cc1c[nH]cn1)C(=O)N[C@H](C(=O)N[C@@H](CO)C(=O)N[C@H](C(=O)N1CCC[C@H]1C(=O)N[C@@H](CCC(N)=O)C(=O)N[C@@H](CCC(=O)O)C(=O)N[C@@H](CC(C)C)C(=O)N[C@@H](Cc1c[nH]c2ccccc12)C(=O)N[C@@H](CCC(=O)O)C(=O)N[C@@H](Cc1c[nH]c2ccccc12)C(=O)N[C@H](C(=O)N[C@@H](CCCNC(=N)N)C(=O)N[C@@H](CCCNC(=N)N)C(N)=O)C(C)C)C(C)C)C(C)C)C(C)C [SEQ ID NO: 231] (Ac-VHVSVPQELWEWVRR-NH2)
7,< 10 µM,CC(=O)N[C@H](C(=O)N[C@@H](Cc1c[nH]cn1)C(=O)N[C@H](C(=O)N[C@@H](CO)C(=O)N[C@H](C(=O)N1CCC[C@H]1C(=O)N[C@@H](CCC(N)=O)C(=O)N[C@@H](CCC(=O)O)C(=O)N[C@@H](CC(C)C)C(=O)N[C@@H](Cc1ccc(O)cc1)C(=O)N[C@@H](CCC(=O)O)C(=O)N[C@@H](Cc1c[nH]c2ccccc12)C(=O)N[C@H](C(=O)N[C@@H](CCCNC(=N)N)C(=O)N[C@@H](CCCNC(=N)N)C(N)=O)C(C)C)C(C)C)C(C)C)C(C)C [SEQ ID NO: 232] (Ac-VHVSVPQELYEWVRR-NH2)
8,< 10 µM,CC[C@H](C)[C@H](NC(=O)[C@@H](NC(=O)[C@@H](NC(=O)[C@H](CCCNC(=N)N)NC(=O)[C@@H](NC(C)=O)C(C)C)C(C)C)[C@@H](C)O)C(=O)N1CCC[C@H]1C(=O)N[C@@H](CCC(N)=O)C(=O)N[C@@H](CCC(=O)O)C(=O)N[C@@H](CC(C)C)C(=O)N[C@@H](Cc1c[nH]c2ccccc12)C(=O)N[C@@H](CCC(=O)O)C(=O)N[C@@H](Cc1c[nH]c2ccccc12)C(=O)N[C@H](C(=O)N[C@@H](CCCNC(=N)N)C(=O)N[C@@H](CCCNC(=N)N)C(N)=O)C(C)C [SEQ ID NO: 233] (Ac-VRVTIPQELWEWVRR-NH2)
9,< 10 µM,CC(=O)N[C@H](C(=O)N[C@@H](CCCNC(=N)N)C(=O)N[C@H](C(=O)N[C@H](C(=O)N[C@H](C(=O)N1CCC[C@H]1C(=O)N[C@@H](CCC(N)=O)C(=O)N[C@@H](CCC(=O)O)C(=O)N[C@@H](CC(C)C)C(=O)N[C@@H](Cc1ccc(O)cc1)C(=O)N[C@@H](CCC(=O)O)C(=O)N[C@@H](Cc1c[nH]c2ccccc12)C(=O)N[C@H](C(=O)N[C@@H](CCCNC(=N)N)C(=O)N[C@@H](CCCNC(=N)N)C(N)=O)C(C)C)C(C)C)[C@@H](C)O)C(C)C)C(C)C [SEQ ID NO: 234] (Ac-VRVTVPQELYEWVRR-NH2)
10,< 10 µM,CC(=O)N[C@H](C(=O)N[C@@H](CCCNC(=N)N)C(=O)N[C@H](C(=O)N[C@H](C(=O)N[C@H](C(=O)N1CCC[C@H]1C(=O)N[C@@H](CCC(N)=O)C(=O)N[C@@H](CCC(=O)O)C(=O)N[C@@H](CC(C)C)C(=O)N[C@@H](Cc1c[nH]c2ccccc12)C(=O)N[C@@H](CCC(=O)O)C(=O)N[C@@H](Cc1c[nH]c2ccccc12)C(=O)N[C@H](C(=O)N[C@@H](CCCNC(=N)N)C(=O)N[C@@H](CCCNC(=N)N)C(N)=O)C(C)C)C(C)C)[C@@H](C)O)C(C)C)C(C)C [SEQ ID NO: 235] (Ac-VRVTVPQELWEWVRR-NH2)
11,< 10 µM,CC[C@H](C)[C@H](NC(=O)[C@H](CCC(=O)O)NC(=O)[C@H](CCC(N)=O)NC(=O)[C@@H]1CCCN1C(=O)[C@@H](NC(=O)[C@@H](NC(=O)[C@@H](NC(=O)[C@H](Cc1c[nH]cn1)NC(=O)[C@@H](NC(C)=O)C(C)C)C(C)C)[C@@H](C)O)C(C)C)C(=O)N[C@@H](Cc1ccc(O)cc1)C(=O)N[C@@H](CCC(=O)O)C(=O)N[C@@H](Cc1c[nH]c2ccccc12)C(=O)N[C@H](C(=O)N[C@@H](CCCNC(=N)N)C(=O)N[C@@H](CCCNC(=N)N)C(N)=O)C(C)C [SEQ ID NO: 236] (Ac-VHVTVPQEIYEWVRR-NH2)
12,< 10 µM,CC[C@H](C)[C@H](NC(=O)[C@H](CCC(=O)O)NC(=O)[C@H](CCC(N)=O)NC(=O)[C@@H]1CCCN1C(=O)[C@@H](NC(=O)[C@@H](NC(=O)[C@@H](NC(=O)[C@H](Cc1c[nH]cn1)NC(=O)[C@@H](NC(C)=O)C(C)C)C(C)C)[C@@H](C)O)[C@@H](C)CC)C(=O)N[C@@H](Cc1c[nH]c2ccccc12)C(=O)N[C@@H](CCC(=O)O)C(=O)N[C@@H](Cc1c[nH]c2ccccc12)C(=O)N[C@H](C(=O)N[C@@H](CCCNC(=N)N)C(=O)N[C@@H](CCCNC(=N)N)C(N)=O)C(C)C [SEQ ID NO: 237] (Ac-VHVTIPQEIWEWVRR-NH2)
13,< 10 µM,CC(=O)N[C@H](C(=O)N[C@@H](Cc1c[nH]cn1)C(=O)N[C@@H](Cc1ccccc1)C(=O)N[C@H](C(=O)N[C@H](C(=O)N1CCC[C@H]1C(=O)N[C@@H](CCC(N)=O)C(=O)N[C@@H](CCC(=O)O)C(=O)N[C@@H](CC(C)C)C(=O)N[C@@H](Cc1ccc(O)cc1)C(=O)N[C@@H](CCC(=O)O)C(=O)N[C@@H](Cc1c[nH]c2ccccc12)C(=O)N[C@H](C(=O)N[C@@H](CCCNC(=N)N)C(=O)N[C@@H](CCCNC(=N)N)C(N)=O)C(C)C)C(C)C)[C@@H](C)O)C(C)C [SEQ ID NO: 238] (Ac-VHFTVPQELYEWVRR-NH2)
14,< 10 µM,CC[C@H](C)[C@H](NC(=O)[C@H](Cc1c[nH]c2ccccc12)NC(=O)[C@H](CC(=O)O)NC(=O)[C@H](Cc1c[nH]c2ccccc12)NC(=O)[C@H](CC(C)C)NC(=O)[C@H](CC(=O)O)NC(=O)[C@H](C)NC(=O)[C@@H]1CCCN1C(=O)[C@@H](NC(=O)[C@H](CO)NC(=O)[C@@H](NC(=O)[C@H](CCCCN)NC(=O)[C@@H](NC(C)=O)C(C)C)[C@@H](C)CC)C(C)C)C(=O)N[C@@H](CC(N)=O)C(=O)N[C@@H](CCCCN)C(N)=O [SEQ ID NO: 239] (Ac-VKISVPADLWDWINK-NH2)
15,< 10 µM,CC[C@H](C)[C@H](NC(=O)[C@H](Cc1c[nH]c2ccccc12)NC(=O)[C@H](CC(=O)O)NC(=O)[C@H](Cc1c[nH]c2ccccc12)NC(=O)[C@H](CC(C)C)NC(=O)[C@H](CC(=O)O)NC(=O)[C@H](C)NC(=O)[C@@H]1CCCN1C(=O)[C@@H](NC(=O)[C@H](CO)NC(=O)[C@@H](NC(=O)[C@H](CCCNC(=N)N)NC(=O)[C@H](CC(C)C)NC(C)=O)[C@@H](C)CC)C(C)C)C(=O)N[C@@H](CC(N)=O)C(=O)N[C@@H](CCCCN)C(N)=O [SEQ ID NO: 240] (Ac-LRISVPADLWDWINK-NH2)
16,< 10 µM,CC[C@H](C)[C@H](NC(=O)[C@H](Cc1c[nH]c2ccccc12)NC(=O)[C@H](CC(=O)O)NC(=O)[C@H](Cc1c[nH]c2ccccc12)NC(=O)[C@H](CC(C)C)NC(=O)[C@H](CC(=O)O)NC(=O)[C@H](C)NC(=O)[C@@H]1CCCN1C(=O)[C@@H](NC(=O)[C@H](Cc1ccc(O)cc1)NC(=O)[C@@H](NC(=O)[C@H](CCCNC(=N)N)NC(=O)[C@H](CC(C)C)NC(C)=O)[C@@H](C)CC)C(C)C)C(=O)N[C@@H](CC(N)=O)C(=O)N[C@@H](CCCCN)C(N)=O [SEQ ID NO: 241] (Ac-LRIYVPADLWDWINK-NH2)
17,< 10 µM,CC[C@H](C)[C@H](NC(=O)[C@H](Cc1c[nH]c2ccccc12)NC(=O)[C@H](CC(=O)O)NC(=O)[C@H](Cc1c[nH]c2ccccc12)NC(=O)[C@H](CC(C)C)NC(=O)[C@H](CC(=O)O)NC(=O)[C@H](C)NC(=O)[C@@H]1CCCN1C(=O)[C@@H](NC(=O)[C@H](Cc1ccc(O)cc1)NC(=O)CNC(=O)[C@H](CCCNC(=N)N)NC(=O)[C@@H](NC(C)=O)C(C)C)C(C)C)C(=O)N[C@@H](CC(N)=O)C(=O)N[C@@H](CCCCN)C(N)=O [SEQ ID NO: 242] (Ac-VRGYVPADLWDWINK-NH2)
